Test results reported in patent US6924300B2, “Oxyiminoalkanoic acid derivatives” (Takeda Chemical Industries, Ltd., priority 1998, dated 2005).

`O=C(O)CC/C(=N\OCc1ccc(OCc2cn3c(-c4ccccc4)cccc3n2)cc1)c1ccccc1` [Example 57, E-4-[4-(5-phenylimidazo[1,2-a]pyridin-2-ylmethoxy)benzyloxyimino]-4-phenylbutyric acid] showed a melting point of 160 to 161 °C.

Compound `Cc1oc(-c2ccccc2)nc1COc1ccc(CO/N=C(\CCCCC(=O)O)c2ccccc2)cc1` [Example 60, E-6-[4-(5-methyl-2-phenyl-4-oxazolylmethoxy)benzyloxyimino]-6-phenylhexanoic acid] has a melting point of 112 to 113 °C.

For `Cc1oc(-c2ccccc2)nc1COc1ccc(CO/N=C(/CCCCC(=O)O)c2ccccc2)cc1` [Example 61, Z-6-[4-(5-methyl-2-phenyl-4-oxazolylmethoxy)benzyloxyimino]-6-phenylhexanoic acid], the melting point was 101 to 102 °C.

`Cc1oc(-c2ccccc2)nc1COc1ccc(CO/N=C2\CC(C(=O)O)c3ccccc32)cc1` (stereo not drawn) [Example 62, E-3-[4-(5-methyl-2-phenyl-4-oxazolylmethoxy)benzyloxyimino]-1-indancarboxylic acid] gave a melting point of 148 to 149 °C.

Compound `Cc1oc(-c2ccccc2)nc1COc1ccc(CO/N=C(\CCC(=O)O)c2ccccn2)cc1` [Example 64, E-4-[4-(5-methyl-2-phenyl-4-oxazolylmethoxy)benzyloxyimino]-4-(2-pyridyl)butyric acid] has a melting point of 116 to 117 °C.

With `Cc1oc(-c2ccccc2)nc1COc1ccc(CO/N=C(/CCC(=O)O)c2ccco2)cc1` [Example 68, Z-4-(2-furyl)-4-[4-(5-methyl-2-phenyl-4-oxazolylmethoxy)benzyloxyimino]butyric acid] the melting point was 131 to 133 °C.

In the case of `Cc1oc(-c2ccccc2)nc1COc1ccc(CO/N=C(\CCC(=O)O)c2cccnc2)cc1` [Example 70, E-4-[4-(5-methyl-2-phenyl-4-oxazolylmethoxy)benzyloxyimino]-4-(3-pyridyl)butyric acid], the melting point is reported as 158 to 159 °C.

With `Cc1oc(-c2ccccc2)nc1COc1ccc(CO/N=C(\CCC(=O)O)c2ccncc2)cc1` [Example 71, E-4-[4-(5-methyl-2-phenyl-4-oxazolylmethoxy)benzyloxyimino]-4-(4-pyridyl)butyric acid] the melting point was 161 to 162 °C.

Compound `Cc1oc(-c2ccccc2)nc1COc1ccc(CO/N=C(\CCC(=O)O)c2ccco2)cc1` [Example 72, E-4-(2-furyl)-4-[4-(5-methyl-2-phenyl-4-oxazolylmethoxy)benzyloxyimino]butyric acid] has a melting point of 124 to 125 °C.

`Cc1oc(-c2ccccc2)nc1COc1ccc(CO/N=C(\CCCCCCCC(=O)O)c2ccccc2)cc1` [Example 73, E-9-[4-(5-methyl-2-phenyl-4-oxazolylmethoxy)benzyloxyimino]-9-phenylnonanoic acid] showed a melting point of 67 to 68 °C.

For `Cc1oc(-c2ccccc2)nc1COc1cccc(CO/N=C(\CCCCC(=O)O)c2ccccc2)c1` [Example 76, E-6-[3-(5-methyl-2-phenyl-4-oxazolylmethoxy)benzyloxyimino]-6-phenylhexanoic acid], the melting point was 114 to 115 °C.

For `Cc1oc(-c2ccccc2)nc1COc1cccc(CO/N=C(\CCC(=O)O)c2ccccc2)c1` [Example 77, E-4-[3-(5-methyl-2-phenyl-4-oxazolylmethoxy)benzyloxyimino]-4-phenylbutyric acid], the melting point was 108 to 109 °C.

`Cc1oc(-c2ccccc2)nc1COc1ccc(CO/N=C(\CCCCC(N)=O)c2ccccc2)cc1` [Example 82, E-6-[4-(5-methyl-2-phenyl-4-oxazolylmethoxy)benzyloxyimino]-6-phenylhexanamide] showed a melting point of 95 to 96 °C.

In the case of `O=C(O)CC/C(=N\OCc1ccc(OCc2cc(-c3ccccc3)no2)cc1)c1ccccc1` [Example 87, E-4-phenyl-4-[4-(3-phenyl-5-isoxazolylmethoxy)benzyloxyimino]butyric acid], the melting point is reported as 96 to 97 °C.

Work on `O=C(O)CC/C(=N\OCc1ccc(OCc2cc(-c3ccccc3)on2)cc1)c1ccccc1` [Example 90, E-4-phenyl-4-[4-(5-phenyl-3-isoxazolylmethoxy)benzyloxyimino]butyric acid] yielded a melting point of 100 to 101 °C.
